Source: patent publication US20220016193A1, “ANTIBACTERIAL AND ANTIVIRUS COMPOSITION COMPRISING Extract of CANNABIS SATIVA L” (FAMENITY CO., LTD., priority 2020, published 2022)

Experiments:
Experiment in all cases: agar diffusion method using a paper disk
[1] = tested on: Escherichia coli (KCTC7039); settings: 2.5 mg/ml, 48 hours
Description: (§1) In order to measure the antibacterial activities of the Cannabis sativa L. extract (CE) and extract mixtures AM1 to AM6 produced in Production Example 1, a modification of the agar diffusion method (Piddock, L. J. V, Techniques used for the determination of antimicrobial resistance and sensitivity in bacteria, J. Appl. Bacteriol, 68, p. 307, 1990) using a paper disk was performed as follows.
(§2) The bacterial strains were used after subculture (Candida albicans: 24° C., Bacillus subtilis: 30° C., Streptococcus mutans: 37° C., Staphylococcus aureus: 37° C., and Escherichia coli: 37° C.).
(§3) One loop of each of the prepared strains was taken and inoculated in 5 ml of saline, and 1 ml of each of the active solutions was inoculated into a 4 to 5-mm-thick medium (Candida albicans—YM Agar (271210. BD), Bacillus subtilis—Nutrient Agar (213000 BD), Streptococcus mutans—Brain Heart (241830 BD), Staphylococcus aureus—Tryptic Soy Agar (236950 BD), Escherichia coli—Nutrient Agar (213000 BD); incubator: EYELA Multi-Thermo incubator MTI-202), and then spread evenly with a bent glass rod. […]
(§4) The solvent of each injected extract mixture was volatilized, and incubation was performed at 37° C. for 48 hours. Then, the diameter of the inhibition zone formed around each paper disc was measured. […]

[2] = tested on: Streptococcus mutans (KCTC3065)
Description: as §1, §2, §3, §4

[3] = tested on: Bacillus subtilis (KCTC1021); settings: 2.5 mg/ml, 48 hours
Description: as §1, §2, §3, §4

[4] = tested on: Candida albicans (KCTC7270); settings: 2.5 mg/ml, 48 hours
Description: as §1, §2, §3, §4

[5] = tested on: Staphylococcus aureus (KCTC1621); settings: 2.5 mg/ml, 48 hours
Description: as §1, §2, §3, §4

In the case of `COc1ccc(O)c(C(C)(C)C)c1` [BHA, butylated hydroxyanisole], the Inhibition zone [1] is reported as 18.4 mm, the Inhibition zone ([2]; Streptococcus mutans, 2.5 mg/ml, 48 hours) is reported as 3.5 mm and the “antibacterial effect (in words)” value ([2]; against S. mutans) is reported as “little antibacterial effect”. For the same molecule, the Inhibition zone [3] was 16.6 mm, the Inhibition zone [4] was 16.0 mm and the Inhibition zone [5] was 16.0 mm.
